From patent US8575359B2, “Acid-sensitive linkers for drug delivery” (The Regents of the University of California, priority 2006, dated 2013) come the findings set out here.

Like-named read-outs stand apart in the source and are kept apart here. Bounds are passed on as bounds.

The subject of the test is human ovarian carcinoma 2008 cells. The experiment in a line: Cytotoxicity (colony formation assay) on human ovarian carcinoma 2008 cells. Type of test: cell-based. How it is done:
Cells were exposed to various concentrations of 10 for 1 hour and survival was determined after a further […] period of growth in drug-free medium.
Human ovarian carcinoma 2008 cells were plated in 6-well plates at a density of 200 cells in 3 mL of media (RPMI-1640+10% Fetal Bovine Serum) per well and incubated overnight to allow the cells to adhere to the bottom of the wells. After overnight incubation the media was removed from each well and fresh growth media containing different concentrations of 10 was added to the wells. The cells were incubated for 1 hour in the presence of 10. Following the removal of the solutions containing 10, the cells were incubated with fresh media for […] to allow surviving cells to form colonies. […] Clusters containing >50 cells were scored as colonies using an AlphaInontech Imager. The colony formation assay was performed in triplicate on 3 independent occasions.
Chem. Int. Ed. 2004, 43, 739-742. Norrisolide Core (5, 11 μmol) was dissolved in 0.5 mL of dichloromethane (DCM). 4-carboxybenzaldehye (19 μmol), N,N′-dicyclohexylcarbodiimide (DCC, 19 μmol) and Dimethylaminopyridine (DMAP, 1 crystal) was added and stirred overnight at 23° C.

Where [1] appears, read: Table 3, human ovarian carcinoma 2008 cells, read-out: IC50.
Where [2] appears, read: human ovarian carcinoma 2008 cells, relative to compound 10.

In the case of `CCOC(c1ccc([N+](=O)[O-])cc1)n1ccnc1` (stereo not drawn) [Compound 3], under setting [1], the IC50 was found to be 0.1 µM.
As for `CCOC(c1ccccc1)n1ccnc1` (stereo not drawn) [Compound 1, N-ethoxybenzylimidazole], the IC50 under setting [1] came out at 0.01 µM.
Regarding `CCCCc1ccc(C(OCC)n2ccnc2)cc1` (stereo not drawn) [Compound 4], under setting [1], the half-maximal inhibitory concentration (IC50) turned out to be 0.25 µM.
`CCOC(c1ccc(Br)cc1)n1ccnc1` (stereo not drawn) [Compound 2]: the concentration for half-maximal inhibition (IC50) under setting [1] was 9 µM.
For `COc1cccc2c1C(=O)c1c(O)c3c(c(O)c1C2=O)C[C@@](O)(C(=O)CO)C[C@@H]3O[C@H]1C[C@H](NC(=O)c2ccc(C=O)cc2)[C@H](O)[C@H](C)O1` [Compound 10, N-(4-formylbenzoyl)doxorubicin], the IC50 (1 hour exposure, colony formation, read-out: IC50 against human ovarian carcinoma 2008 cells) was about 12 µM.
For the compound `COc1cccc2c1C(=O)c1c(O)c3c(c(O)c1C2=O)C[C@@](O)(C(=O)CO)C[C@@H]3O[C@H]1C[C@H](N)[C@H](O)[C@H](C)O1` [doxorubicin, Doxorubicin, reference compound], the “IC50 fold lower than that of 10” value under setting [2] is recorded as over 10 fold.
On to `CCOC(c1ccccc1OC)n1ccnc1` (stereo not drawn) [Compound 6], for which the 50% inhibitory concentration (IC50) under setting [1] stood at 55 µM.
For `CCOC(c1ccccc1Br)n1ccnc1` (stereo not drawn) [Compound 5], the IC50 under setting [1] stood at 52 µM.
As to “N-ethoxybenzylimidazole-doxorubicin Conjugate [Compound 9]”, the “IC50 fold higher than that of 10” value under setting [2] is recorded as 2 fold.

A word on the IC50: it is the concentration at which inhibition is half-maximal.
